SMILES strings stand for the structures. Where two headings read alike, the source gives them in different places.

The test relates to SW48 (EGFR G719S positive). The test is described as follows: Growth inhibition GI50 in vitro (CCK8/MTT, 72 h). The settings on record: Homo sapiens. It is filed as cell-based. As for the experimental part:
PC-9ER is an acquired Erlotinib resistance cell line of PC-9 cells developed by the investor. […] The four cell lines above were cultured with 1×RPMI1640 complete medium (supplement with 10% FBS). Human colon cancer cell line SW48 (EGFR G719S positive, ATCC). was cultured with L15 complete medium (10% FB S).
The suspension cells were collected by centrifugation. The supernatant was discard and the cell pellet was resuspended and counted. Different cell concentrations (5˜10×10^4 cells/mL) were prepared according to the growth cycle of each cell line and then seeded on a 96-well plate (Corning), 100 μL/well. The cells were incubated over night at 37° C., 5% CO2. The compounds were added to the cells on the second day with 2 wells in parallel. The final concentration of organic solvent shall not exceed 1%. The cells were continually incubated for 72 h, and then subjected to MTT assay.
The present compounds and the reference compounds were dissolved with DMSO (Sigma), respectively. […] The storage concentration of compounds was 10 mM and kept at −20° C. They were diluted by 2 times or 10 times with serial dilution before using.
Dojindo CCK8 reagent kit was used as MTT assay. […] FC meter was used as microplate reader.
Adherent cell culture medium was discard and immediately replaced with fresh prepared medium which contains 10% CCK8 reagent (100 μL/well). For the suspension cells, CCK8 was directly added to 10% of the final concentration. The cells were continually incubated for 1˜4 h. When the color of control wells turned to dark yellow, the absorption value was measured at OD450 nm. The cell growth rate was calculated according to the following formula: cell growth rate (%)=100*(T−T0)/(C−T0), T=optical density of drug treatment cell well—optical density of blank control well; T0=optical density of cell well before drug treatment—optical density of blank control well; C=optical density of cell well of solvent control group—optical density of blank control well. […] The experiment was independently repeated 1˜3 times, and subject to biological statistical analysis.
Each compound started at 1000 nM as an initial concentration and was diluted by […] with serial dilution to 0.03 nM.

One may read the GI50 as the concentration giving 50% growth inhibition. As for `C=CC(=O)Nc1cc(Nc2nccc(-c3cn(C)c4ccccc34)n2)c(OC)cc1N(C)CCN(C)C` [AZD9291, reference compound], where the note is “SW48, read-out: GI50 SW48 (EGFR G719S)”, the GI50 came to 0.156 µM.

For `C=CC(=O)Nc1cc(Nc2cc(Nc3cc(F)c(OC)c(Cl)c3)ncn2)c(OC)cc1N(C)CCN(C)C` [Compound 236, N-(5-(6-(3-chloro-5-fluoro-4-methoxyphenylamino)-pyrimidin-4-yl-amino)-2-((2-dimethylamino-ethyl)-methyl-amino)-4-methoxyl-phenyl)-acrylamide], the GI50 (SW48, Table 15, 1000 nM to 0.03 nM serial dilution, read-out: GI50 SW48 (EGFR G719S)) turned out to be 0.00423 µM.

The values above are taken from patent publication US10342796B2, “Acrylanilide derivative, preparation method, and applications thereof in pharmacy” (Ancureall Pharmaceutical (Shanghai) Co., Ltd., priority 2015, dated 2019).
